Experimental data from patent US12329780B2, “Acute and chronic mitochondrial electron transport chain dysfunction treatments and graphenic materials for use thereof” (WILLIAM MARSH RICE UNIVERSITY, priority 2017, dated 2025).

Experiments:
[1] = administered intravenously by itself; cited from earlier work
[2] = Deferoxamine degradation in solution by 262 nm UV absorbance; assay type: physicochemical
Text: FIG. 12 is a graph in which Y-axis is units of deferoxamine remaining in solution through monitoring of the 262 nm absorbance by UV spectroscopy. Trend line 1203 illustrates deferoxamine degradation in PBS solution (DEF/PBS). Trend line 1201 illustrates the degradation of deferoxamine in a PBS solution and dilute PEG-HCC (DEF/PEG). Trend line 1202 illustrates deferoxamine degradation in a PBS that had nitrogen gas bubbled through it (DEF/N2).
An additional advantage of this formulation is that it prevents the oxidative breakdown of the deferoxamine molecule, likely through an interaction with the antioxidant capacity of the parent nanomaterial (FIG. 12). This is a tremendous advantage clinically because current deferoxamine has a short shelf life when prepared for intravenous administration, which could be dramatically extended through this formulation and thereby be useful for settings other than the hospital, such as in a battle field, automobile trauma, or other setting in which tissue injury must be rapidly treated.

[3] = test system: bEnd0.3 murine cerebrovascular endothelial cells; assay: Hydrogen peroxide challenge assay in bEnd.3 cells (Calcein AM live cell counts); assay type: cell-based; conditions: MB 0, 5, 10 and 20 μM, with or without 100 μM H2O2
Method: The differential properties of MB and PEG-HCCs were tested by using a hydrogen peroxide challenge assay in cultured cells. Hydrogen peroxide exerts toxic effects on endothelial cells through at least four routes: hydroxyl and superoxide radical formation by reacting with reduced species, nitric oxide synthase (NOS) and NADPH oxidase (NOX) stimulation and uncoupling, modulation of mitochondrial permeability, and the Fenton reaction. This employs administering the test agent after the hydrogen peroxide since efficacy under post-injury conditions would be critical for clinical translation.
PEG-HCCs and MB were compared in two standard hydrogen peroxide challenge assays. In the first experiment, bEnd0.3 murine cerebrovascular endothelial cells were treated with PEG-HCCs, and 100 μM H2O2 with and without 8 mg/L PEG-HCCs. The cells were incubated overnight and then then detached and counted using a hemocytometer and Calcein AM to label live cells. (Live cell counts n=32).
A similar assay was performed with MB at 0, 5, 10 and 20 μM given 15 minutes after initial exposure to 100 μM H2O2. […] The inclusion of 100 μM H2O2 further reduced survival.

[4] = target: ferricytochrome C (CytCox) (Homo sapiens, UniProt P99999); assay: ETS kinetics: reduction of ferricytochrome C by NADH; assay type: biochemical; conditions: 4 mg/L catalyst, CytCox 40 μM, NADH 0-5 mM
Sequence of ferricytochrome C (CytCox) (P99999 whole entry): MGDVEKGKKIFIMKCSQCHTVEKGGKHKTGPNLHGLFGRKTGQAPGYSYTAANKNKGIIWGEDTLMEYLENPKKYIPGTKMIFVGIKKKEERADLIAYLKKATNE

[5] = Midpoint reduction potential; assay type: physicochemical
Text: PEG-HCCs and MB are electrochemically similar with respect to midpoint reduction potentials of +11 mV and ˜0 mV respectively, although PEG-HCCs have a much broader range. PEG-HCCs appear to have similar effects on the electron transport chain as described for MB.

Row | SMILES | Half-life in circulation (t1/2) [1] | Deferoxamine degradation in solution ([2]; PBS solution with dilute PEG-HCC (DEF/PEG)) | Deferoxamine degradation in solution ([2]; PBS with nitrogen gas bubbled through (DEF/N2)) | Cell survival [3] | Vmax [4] | Midpoint reduction potential [5]
1 | CC(=O)N(O)CCCCCNC(=O)CCC(=O)N(O)CCCCCNC(=O)CCC(=O)N(O)CCCCCN [deferoxamine] | ≈ 0.3 h | no detectable degradation | no detectable degradation |  |  | 
2 | CN(C)c1ccc2nc3ccc(=[N+](C)C)cc-3sc2c1 [MB, Methylene blue] |  |  |  | dose-dependent reduction in cell survival | 1.432e-07 M/s | ~0 mV
